Reference: US11951137B2, “Compositions comprising unsaturated fatty acids and nitric oxide releasing compounds and use thereof for enhancing cognitive and related functions” (SOCIETE DES PRODUITS NESTLE S.A., priority 2008, dated 2024)

Test system: human iCell neurons
Experiment: Amyloid beta 42 ELISA on supernatant, neuronal model
Details: treated 2 days, 3 concentrations, FIG. 2
Protocol: For a neuronal model, human iCell neurons (Cellular Dynamics International) were plated in 96-well plates and were grown to neuronal maturity by culturing for 2 weeks.
In each model, cells were then treated with DHA (UFA), arginine and citrulline (NORC's) at 3 different concentrations (see table 1 in FIG. 1) for 2 days. The supernatant was used to perform Amyloid beta 42 (A131-42) ELISA Kit, Human (KHB3441, Thermo Fisher Scientific).

SMILES	release of Aβ1-42
CC/C=C\C/C=C\C/C=C\C/C=C\C/C=C\C/C=C\CCC(=O)O [DHA, docosahexaenoic acid]	no effect
NC(=O)NCCC[C@H](N)C(=O)O [citrulline]	no effect
